Assay results: patent publication US20150105252A1, “SUBSTITUTED PYRAZOLES AS HERBICIDES” (E I DU PONT DE NEMOURS AND COMPANY, priority 2013, published 2015)

Legend:
corn [1] = assay: Test A preemergence; type: in vivo, Zea mays
How it was run: (§1)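 Scoring was visual, on a scale where 100 means complete control and 0 means no effect, comparing treated with untreated plants around 10 days post-application. Compounds in surfactant-containing non-phytotoxic solvent were sprayed onto soil preemergence or onto one- to two-leaf seedlings (2–10 cm) postemergence.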

crabgrass, large [2] = assay: Test A preemergence; type: in vivo, Digitaria sanguinalis
How it was run: as §1

sedge, umbrella = assay: Test B flood; type: in vivo, Cyperus difformis; conditions: 250 g ai/ha, visual rating on 0 to 100 scale (0 no effect, 100 complete control), 13 to 15 days
How it was run: (§2)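 Paddy-water application: seedlings at 2-leaf stage, flood depth 3 cm maintained for the test duration. Evaluation after 13–15 days in the greenhouse by eye relative to controls; 0–100 scale.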

rice = assay: Test B flood; type: in vivo, Oryza sativa; conditions: 250 g ai/ha, visual rating on 0 to 100 scale (0 no effect, 100 complete control), 13 to 15 days
Experimental: (§3) Seeds selected from rice (Oryza sativa), sedge, umbrella (small-flower umbrella sedge Cyperus difformis), ducksalad (Heteranthera limosa), and barnyardgrass (Echinochloa crus-galli) were grown to the 2-leaf stage for testing. At time of treatment, test pots were flooded to 3 cm above the soil surface, treated by application of test compounds directly to the paddy water, and then maintained at that water depth for the duration of the test.
(§4) Treated plants and controls were maintained in a greenhouse for 13 to 15 days, after which time all species were compared to controls and visually evaluated. Plant response ratings, summarized in Table B, are based on a scale of 0 to 100 where 0 is no effect and 100 is complete control. A dash (-) response means no test result.

barnyardgrass [3] = assay: Test A postemergence; type: in vivo, Echinochloa crus-galli; conditions: Postemergence
How it was run: as §1

morningglory [4] = assay: Test A postemergence; type: in vivo, Ipomoea spp.
How it was run: as §1

foxtail, giant [5] = assay: Test A postemergence; type: in vivo, Setaria faberii
How it was run: as §1

velvetleaf [6] = assay: Test A postemergence; type: in vivo, Abutilon theophrasti
How it was run: as §1

wheat [7] = assay: Test A postemergence; type: in vivo, Triticum aestivum
How it was run: as §1

barnyardgrass [8] = assay: Test B flood; type: in vivo, Echinochloa crus-galli; conditions: 250 g ai/ha, visual rating on 0 to 100 scale (0 no effect, 100 complete control), 13 to 15 days
How it was run: as §2

velvetleaf [9] = assay: Test A preemergence; type: in vivo, Abutilon theophrasti
How it was run: as §1

morningglory [10] = assay: Test A preemergence; type: in vivo, Ipomoea spp.
How it was run: as §1

wheat [11] = assay: Test A preemergence; type: in vivo, Triticum aestivum; conditions: preemergence
How it was run: as §1

corn [12] = assay: Test A postemergence; type: in vivo, Zea mays
How it was run: as §1

crabgrass, large [13] = assay: Test A postemergence; type: in vivo, Digitaria sanguinalis
How it was run: as §1

barnyardgrass [14] = assay: Test A preemergence; type: in vivo, Echinochloa crus-galli
How it was run: as §1

pigweed [15] = assay: Test A postemergence; type: in vivo, Amaranthus retroflexus
How it was run: as §1

ducksalad = assay: Test B flood; type: in vivo, Heteranthera limosa; conditions: 250 g ai/ha, visual rating on 0 to 100 scale (0 no effect, 100 complete control), 13 to 15 days
Experimental: as §3, §4

foxtail, giant [16] = assay: Test A preemergence; type: in vivo, Setaria faberii
How it was run: as §1

pigweed [17] = assay: Test A preemergence; type: in vivo, Amaranthus retroflexus
How it was run: as §1

[18] = Preemergence, 500 g ai/ha, 0 to 100 scale, 0 no effect, 100 complete control
[19] = preemergence, 125 g ai/ha, visual injury, 0 to 100 scale, approx. 10 days
[20] = 125 g ai/ha, 0 to 100 scale, 0 no effect, 100 complete control
[21] = 500 g ai/ha, visual rating after approx. 10 days, 0 to 100 scale (0 no effect, 100 complete control)
[22] = Postemergence, 500 g ai/ha, visual rating after approx. 10 days, 0 to 100 scale (0 no effect, 100 complete control)
[23] = postemergence, 125 g ai/ha, about 10 days, visual rating on 0 to 100 scale (0 no effect, 100 complete control)
[24] = 125 g ai/ha, visual injury, 0 to 100 scale, approx. 10 days
[25] = 500 g ai/ha, visual injury after approx. 10 days, 0 to 100 scale (0 no effect, 100 complete control)
[26] = preemergence, 500 g ai/ha, visual injury after approx. 10 days, 0 to 100 scale (0 no effect, 100 complete control)

Compound | Corn plant response rating (corn [1]; [19]) | Crabgrass, Large plant response rating (crabgrass, large [2]; [19]) | Plant response rating, Sedge, Umbrella (sedge, umbrella) | Plant response rating, Rice (rice) | Barnyardgrass plant response rating (barnyardgrass [3]; [20]) | Barnyardgrass plant response rating (barnyardgrass [3]; [21]) | Morningglory plant response rating (morningglory [4]; [22]) | Morningglory plant response rating (morningglory [4]; [23]) | Foxtail, Giant plant response rating (foxtail, giant [5]; [22]) | Foxtail, Giant plant response rating (foxtail, giant [5]; [23]) | Velvetleaf plant response rating (velvetleaf [6]; [22]) | Velvetleaf plant response rating (velvetleaf [6]; [23]) | Wheat plant response rating (wheat [7]; [22]) | Wheat plant response rating (wheat [7]; [23]) | Plant response rating, Barnyardgrass (barnyardgrass [8]) | Velvetleaf plant response rating (velvetleaf [9]; [19]) | Morningglory plant response rating (morningglory [10]; [19]) | Wheat plant response rating (wheat [11]; [24]) | Wheat plant response rating (wheat [11]; [25]) | Corn plant response rating (corn [12]; [22]) | further results
CCc1cc(C(=O)NC2CC2)nn1Oc1ccnc(C(F)(F)F)c1 [Compound 83, N-cyclopropyl-5-ethyl-1-[[(2-trifluoromethyl)-4-pyridinyl]oxy]-1H-pyrazole-3-carboxamide] | 10 | 100 | 70 | 10 | 10 | 40 | 70 | 20 | 60 | 20 | 30 | 30 | 40 | 0 | 0 | 0 | 10 | 0 | 60 | 70 | Corn plant response rating (corn [1]; [18]): 60; Crabgrass, Large plant response rating (crabgrass, large [2]; [18]): 100; Velvetleaf plant response rating (velvetleaf [9]; [18]): 10; Morningglory plant response rating (morningglory [10]; [18]): 50; Corn plant response rating (corn [12]; [23]): 10; Crabgrass, Large plant response rating (crabgrass, large [13]; [22]): 60; Crabgrass, Large plant response rating (crabgrass, large [13]; [23]): 30; Barnyardgrass plant response rating (barnyardgrass [14]; [18]): 90; Barnyardgrass plant response rating (barnyardgrass [14]; [19]): 10; Pigweed plant response rating (pigweed [15]; [22]): 20; Pigweed plant response rating (pigweed [15]; [23]): 10; Plant response rating, Ducksalad (ducksalad): 60; Foxtail, Giant plant response rating (foxtail, giant [16]; [18]): 100; Foxtail, Giant plant response rating (foxtail, giant [16]; [19]): 70; Pigweed plant response rating (pigweed [17]; [18]): 100; Pigweed plant response rating (pigweed [17]; [19]): 90
CCc1cc(C(=O)NCC(F)(F)F)nn1Oc1ccnc(C(F)(F)F)c1 [Compound 84] | 10 | 90 | 60 | 0 | 10 | 30 | 70 | 20 | 50 | 10 | 30 | 20 | 40 | 0 | 0 | 0 | 0 | 0 | 50 | 40 | Corn plant response rating (corn [1]; [18]): 40; Crabgrass, Large plant response rating (crabgrass, large [2]; [18]): 100; Velvetleaf plant response rating (velvetleaf [9]; [18]): 50; Morningglory plant response rating (morningglory [10]; [18]): 30; Corn plant response rating (corn [12]; [23]): 10; Crabgrass, Large plant response rating (crabgrass, large [13]; [22]): 50; Crabgrass, Large plant response rating (crabgrass, large [13]; [23]): 20; Barnyardgrass plant response rating (barnyardgrass [14]; [18]): 70; Barnyardgrass plant response rating (barnyardgrass [14]; [19]): 10; Pigweed plant response rating (pigweed [15]; [22]): 20; Pigweed plant response rating (pigweed [15]; [23]): 10; Plant response rating, Ducksalad (ducksalad): 20; Foxtail, Giant plant response rating (foxtail, giant [16]; [18]): 80; Foxtail, Giant plant response rating (foxtail, giant [16]; [19]): 40; Pigweed plant response rating (pigweed [17]; [18]): 100; Pigweed plant response rating (pigweed [17]; [19]): 50
CCCCNC(=O)c1cc(CC)n(Oc2ccnc(C(F)(F)F)c2)n1 [Compound 86] | 0 | 50 | 40 | 0 | 0 | 20 | 60 | 10 | 40 | 10 | 40 | 30 | 10 | 0 | 0 | 0 | 0 | 0 | 0 | 30 | Corn plant response rating (corn [1]; [26]): 20; Crabgrass, Large plant response rating (crabgrass, large [2]; [26]): 80; Velvetleaf plant response rating (velvetleaf [9]; [26]): 0; Morningglory plant response rating (morningglory [10]; [26]): 20; Corn plant response rating (corn [12]; [23]): 10; Crabgrass, Large plant response rating (crabgrass, large [13]; [22]): 50; Crabgrass, Large plant response rating (crabgrass, large [13]; [23]): 10; Barnyardgrass plant response rating (barnyardgrass [14]; [19]): 0; Barnyardgrass plant response rating (barnyardgrass [14]; [26]): 50; Pigweed plant response rating (pigweed [15]; [22]): 0; Pigweed plant response rating (pigweed [15]; [23]): 0; Plant response rating, Ducksalad (ducksalad): 0; Foxtail, Giant plant response rating (foxtail, giant [16]; [19]): 0; Foxtail, Giant plant response rating (foxtail, giant [16]; [26]): 80; Pigweed plant response rating (pigweed [17]; [19]): 0; Pigweed plant response rating (pigweed [17]; [26]): 0
CCc1cc(C(=O)NCC(F)(F)F)nn1Oc1cccc(C(F)(F)F)n1 [Compound 87] | 0 | 0 | 0 | 0 | 0 | 0 | 20 | 10 | 0 | 0 | 10 | 0 | 0 | 0 | 0 | 0 | 0 | 0 | 0 | 0 | Corn plant response rating (corn [1]; [26]): 0; Crabgrass, Large plant response rating (crabgrass, large [2]; [26]): 80; Velvetleaf plant response rating (velvetleaf [9]; [26]): 0; Morningglory plant response rating (morningglory [10]; [26]): 10; Corn plant response rating (corn [12]; [23]): 0; Crabgrass, Large plant response rating (crabgrass, large [13]; [22]): 10; Crabgrass, Large plant response rating (crabgrass, large [13]; [23]): 0; Barnyardgrass plant response rating (barnyardgrass [14]; [19]): 0; Barnyardgrass plant response rating (barnyardgrass [14]; [26]): 0; Pigweed plant response rating (pigweed [15]; [22]): 10; Pigweed plant response rating (pigweed [15]; [23]): 0; Plant response rating, Ducksalad (ducksalad): 0; Foxtail, Giant plant response rating (foxtail, giant [16]; [19]): 0; Foxtail, Giant plant response rating (foxtail, giant [16]; [26]): 0; Pigweed plant response rating (pigweed [17]; [19]): 0; Pigweed plant response rating (pigweed [17]; [26]): 40
CCCc1cc(C(=O)NCC(F)(F)F)nn1Oc1ccnc(C(F)(F)F)c1 [Compound 92] | 0 | 20 | 50 | 0 | 0 | 40 | 40 | 0 | 50 | 0 | 20 | 0 | 20 | 0 | 0 | 0 | 0 | 0 | 20 | 40 | Corn plant response rating (corn [1]; [26]): 40; Crabgrass, Large plant response rating (crabgrass, large [2]; [26]): 100; Velvetleaf plant response rating (velvetleaf [9]; [26]): 0; Morningglory plant response rating (morningglory [10]; [26]): 20; Corn plant response rating (corn [12]; [23]): 0; Crabgrass, Large plant response rating (crabgrass, large [13]; [22]): 30; Crabgrass, Large plant response rating (crabgrass, large [13]; [23]): 0; Barnyardgrass plant response rating (barnyardgrass [14]; [19]): 0; Barnyardgrass plant response rating (barnyardgrass [14]; [26]): 90; Pigweed plant response rating (pigweed [15]; [22]): 40; Pigweed plant response rating (pigweed [15]; [23]): 0; Plant response rating, Ducksalad (ducksalad): 50; Foxtail, Giant plant response rating (foxtail, giant [16]; [19]): 20; Foxtail, Giant plant response rating (foxtail, giant [16]; [26]): 100; Pigweed plant response rating (pigweed [17]; [19]): 40; Pigweed plant response rating (pigweed [17]; [26]): 100
